Measured values published in patent EP1785722A1, “Microbial, viral and mammalian susceptibility to agents that affect cell growth and metabolism, and compatibility of compounds” (Stratos Bio Ltd., priority 2005, dated 2007).

What was measured:
respiring E.coli = assay: Microcalorimetry of respiring E. coli in glucose buffer; format: cell-based
Procedure: E.coli was suspended in 10% DMSO prior to freezing and the viable counts were for batch 1: pre-freeze: 4.0 ± 0.6_ x 10^10 cfu/ml and post -freeze 2.0 ± 0.44 x 10^10 cfu/ml and for batch 2: pre-freeze: 3.45 ± 0.58 x 10^10 cfu/ml and post-freeze 2.93 ± 0.43 x 10^10 cfu/ml. The freezing rate for both batches was 20°C/min the survival rate was 50% for batch 1 and 85% for batch 2. These differences may have been due to batch 1 being kept for 24h at 4°C before being frozen.
The respiration experiments were carried out in glucose buffer at different pH. The respiration curves obtained from batch 1 (inoculum 2 x 10^10 cfu/ml) and batch 2 Inoculum 3.2 x 10^10 cfu/ml) were essentially similar and a mean was used as a reference). The respiration experiments were carried out at pH 7 for polymyxin and Znbacitracin and at pH 8 for neomycin. No differences in p-t control curves could be observed at pH 7 or pH 8.
The p-t curves rose and reached a plateau as has been observed for respiration of yeasts and some 20 min later fell to a lower plateau value. Prior incubation of the cells in the buffered glucose for periods up to 20 min before presentation to the calorimeter could reduce or entirely remove this effect.

B. pumilus = assay: MIC determination against B. pumilus; format: cell-based, Bacillus pumilus
Procedure: (§1) However when the concentration of organisms was 5.1 x 10^6 cfu/ml which was the inoculum used in the microcalorimetric incubations the MIC was increased to 2 µg/ml; the effect was also bacteriostatic.

Bacillus pumilus = assay: Flow microcalorimetry (p-t curves) of growing Bacillus pumilus; format: cell-based
From the text: (§2) • a) For B. pumilus a simple glucose/salts medium was employed with a glucose concentration of 0.1 % w/v. • b) For Bord. bronch. The above salts medium was used with the addition of nicotinic acid, methionine and glutamic acid. Glutamic acid was used at a concentration of 0.2% w/v. • c) For M. flavus a semidefined medium was employed, using the same salts as a B. pumilus but also Na-citrate, biotin and protease peptone. In the calorimeter a concentration of 0.4% protease peptone was used. All medium constituents (except protease) were analytical reagents. The calorimetric medium was therefore a final concentration of 100ml of either solution a, b or c freshly autoclaved for 15 mins exactly at 121°C, 151b/sq inch. Glucose was added to the appropriate solution after autoclaving.
(§3) To the vertical face of the vessel close to its base, equidistantly spaced around the circumference, ports were fitted for an oxygen electrode and for sampling/inoculation. The fermenter was closed with a flat flanged glass lid which had five ports accommodating respectively, gas inlet tube, gas exhaust (via air condenser), inlet and outlet flow-lines to and from the calorimeter. The fermenter and lid was sealed with a p.t.f.e. gasket and clamped with a metal clip. The fermenter was placed on a magnetic stirring unit in a water jacket which allowed circulation of the thermostatically controlled water at 30°C or 37°C. The fermenter which contained a Teflon coated magnetic stirring bar, was sterilised by autoclaving.
(§4) For a typical calorimetric incubation the medium was passed through the calorimetric vessel at the same flow rate and temperature as those used in the experiment to establish a steady baseline deflection. The following operations then took place to a strict timetable. The liquid nitrogen stored ampoule was thawed at 38°C for 3 min and then stirred for 20 sec on a whirlimixer. The bacterial suspension (0.5-1.5ml) volumes was inoculated into the medium (100ml) two minutes after completion of thawing. A Gilson automatic pipette was used for inoculation. The calorimeter inlet flow-line was placed in the incubation medium 30 seconds after inoculation. The flowing incubation medium reached the calorimetric vessel two min after inlet flow-line insertion. At this time the recording of the p-t curves was started. Eight min after inoculation the outflow from the calorimeter was returned to the fermenter (after the "baseline" medium had run to waste but before the inoculated medium ran to waste) thus making a closed system. Aeration was started as soon as the inlet tube was inserted in the fermenter. Microbiological purity of the culture was checked by plating out a sample of the culture at the end of each incubation on nutrient agar (lab M).
(§5) The output of calorimetric experiments is a plot of power (energy evolution per unit of time) as a function of time. The unit of power (p) is the Watt (W) and the unit of time is the hour (h). In some experiments seconds (s) were used as time unit.
as §1

E. coli = assay: MIC / MBC against E. coli; format: cell-based
[1] = test system: Bordetella Bronchiseptica; assay: Flow microcalorimetry (p-t curves) of growing Bordetella bronchiseptica; format: cell-based
From the text: as §2, §3, §4, §5
After successful freezing of Bord. bronch p-t curves for growth in different concentrations of glutamic acid from 0.1%-0.5% were obtained. It was concluded that a medium containing 0.2% glutamic acid would be sufficient for a good deflection in the microcalorimeter minimising the possibility of the bacteria clogging in the microcalorimetric cell or in the teflon tubes leading to and from the microcalorimetric cell. A pH of 7 was used in all the following experiments as this is the optimum pH for polymyxin - lipid binding.
It was of vital importance to maintain a constant oxygen tension; this was achieved by using saturation concentrations of oxygen. It was decided to use the height of the small peak as full scale deflection for the antibiotic assay as the increase in power was exponential up to this point and the peak occurred at a convenient time. This choice of assay point was empirical. The inoculum was 1.1 ± 0.06 x 10^8 cfu/ml for all the microclalorimetric incubations. […]

Micrococcus flavus [2] = assay: Flow microcalorimetry (p-t curves) of growing Micrococcus flavus; format: cell-based; conditions: single antibiotic at its MIC (4 ug/ml Neo; 2ug/ml POLB)
From the text: as §2, §3, §4, §5
This point occurred at an increase in deflection of 29.5% from the baseline value.

Micrococcus flavus [3] = assay: MIC / MBC against Micrococcus flavus; format: cell-based; conditions: as printed in table heads
[4] = test system: Bordetella Bronchiseptica; assay: MIC / MBC against Bordetella bronchiseptica; format: cell-based
[5] = 0.25 ug/ml added at 0 % of p-t curve

With NC[C@@H]1O[C@H](O[C@H]2[C@@H](O)[C@H](O[C@@H]3[C@@H](O)[C@H](N)C[C@H](N)[C@H]3O[C@H]3O[C@H](CN)[C@@H](O)[C@H](O)[C@H]3N)O[C@@H]2CO)[C@H](N)[C@@H](O)[C@@H]1O.O=S(=O)(O)O [neomycin sulphate, Neomycin sulphate] the effect on power (respiring E.coli; Fig. 16) was “an increase in power”, the Comments (respiring E.coli; NEO 500 ug/ml) was “Consistent with increased rate of RNA synthesis” and the “Observed effect on p-t curves” value (respiring E.coli; NEO 500 ug/ml, pH 8) was “Increase in heat output”. For the same compound, the heat output (respiring E.coli; all concentrations) was “increased heat output”, the Linear dose-response between (respiring E.coli; table) was 10 to 100 µg/mL and the “linear relationship between dose and the reciprocal of increase in response from the control curve” value (respiring E.coli; text) was 20 to 100 µg/mL. The “effect at MIC” value (B. pumilus; 5.1 x 10^6 cfu/ml) was “bacteriostatic”, the MIC (B. pumilus; 5.1 x 10^6 cfu/ml, inoculum used in the microcalorimetric incubations) was 2 µg/mL and the MIC (B. pumilus; inoculum of 1x10^5 cfu/ml) was 0.1 µg/mL. For the same compound, the “effect at MIC” value (B. pumilus; inoculum of 1x10^5 cfu/ml) was “bacteriostatic”, the MIC (B. pumilus; listed as NEO) was 1 µg/mL and the Comments (Bacillus pumilus; [5]) was “No effect”. The “Observed effect on p-t curves Related to standard growth curve” value (“Observed effect on p-t curves Related” for short) (Bacillus pumilus; [5]) was 1X standard curve, the Comments (Bacillus pumilus; 0.5 ug/ml added at 0 % of p-t curve) was “Inhibition of RNA synthesis” and the Comments (Bacillus pumilus; 1 ug/ml added at 10 % of p-t curve) was “Growth promoting effect potential stimulation of RNA synthesis”. For the same compound, the “Observed effect on p-t curves Related” value (Bacillus pumilus; 1 ug/ml added at 10 % of p-t curve, at 11 h) was 1.2 X signal at 11 h, the Comments (Bacillus pumilus; 1 ug/ml added at 15 % of p-t curve) was “Growth promoting effect potential stimulation of RNA synthesis” and the “Observed effect on p-t curves Related” value (Bacillus pumilus; 1 ug/ml added at 15 % of p-t curve, at 11 h) was 1.2 X signal at 11 h. For the same compound, the Comments (Bacillus pumilus; 1 ug/ml added at 25 % of p-t curve) was “Growth promoting effect potential stimulation of RNA synthesis”, the “Observed effect on p-t curves Related” value (Bacillus pumilus; 1 ug/ml added at 25 % of p-t curve, at 11 h) was 5X signal at 11 h and the Comments (Bacillus pumilus; 2 ug/ml added at 10 % of p-t curve) was “Growth promoting effect potential stimulation of RNA synthesis”. The “Observed effect on p-t curves Related” value (Bacillus pumilus; 2 ug/ml added at 10 % of p-t curve, at 11 h) was 1.2 Xsignal at 11 h, the power output (Bacillus pumilus; 0.5 and 1 x MIC (1-2 µg/ml) added after an increase of 10% of full scale deflection) was “the same effect was observed” and the power output (Bacillus pumilus; 0.5 x MIC (1µg/ml) added after a 25% increase power output) was “massive power output 2-4h after addition”. For the same compound, the Comments (Bacillus pumilus; > 2 ug/ml added at 10 % of p-t curve) was “Inhibition of RNA synthesis Possible to achieve linear dose-response at 7 hours after addition of antibiotic to the bacterial culture, after 11 hours heat-out put levels off b ut do not return to baseline indicating a bacteriostatic effect and maximum inhibition of RNA synthesis”, the “Observed effect on p-t curves Related” value (Bacillus pumilus; > 2 ug/ml added at 10 % of p-t curve, at 11 h) was 0.75 or less at 11 h and the power output (Bacillus pumilus; added after an increase in power output of 15% of full scale deflection) was “only marginally larger than that observed for the normal growth curve”. For the same compound, the power output (Bacillus pumilus; higher concentrations of antibiotic) was “a decrease in power output was observed”, the “concentrations at which an increased heat output can be observed” value (Bacillus pumilus; organism not given) was < 1 µg/mL and the MBC (E. coli; as printed in table head) was 5900 µg/mL. The MIC (E. coli; as printed in table head) was 5900 µg/mL, the MIC (E. coli; text) was 500 µg/mL and the “Observed effect on p-t curves” value ([1]; single antibiotic at its MIC (0.25ug/ml Neo; 100ug/ml ZNB), added at 50 % of p-t curve) was “No effect on p-t curve”. For the same compound, the “Observed effect on p-t curves” value (Micrococcus flavus [2]) was “No effect on p-t curve”, the MIC (Micrococcus flavus [3]) was 4 µg/mL and the MIC ([4]; as printed in table heads) was 0.25 µg/mL.
In the case of Polymyxin B sulphate, the “sensitivity of the assay” value (respiring E.coli) is reported as 3 µg/mL, the “effect on p-t curve” value (respiring E.coli; Fig. 15) is reported as “reduced the initial peak height and thereafter the p-t curve returned to baseline” and the Comments (respiring E.coli; POLB 6.3 ug/ml) is reported as “Bacteriocidal action demonstrated”. For the same compound, the “time to return to baseline (after reduced height of p-t curve initially)” value (respiring E.coli; POLB 6.3 ug/ml, pH 7) was “Reduced height of p-t curve initially and returned to baseline within 1 hour”, the MIC (B. pumilus; as printed in table heads) was 20 µg/mL and the “time until growth was inhibited completely” value (Bacillus pumilus; 20ug/ml POLB, pH 8.00) was “Within 9 hours growth was inhibited completely”. It also gave an MBC (E. coli; as printed in table head) of 6.3 µg/mL, an MIC (E. coli; as printed in table head) of 6.3 µg/mL and an MBC (E. coli; text) of 6.3 µg/mL. The MIC (E. coli; text) was 6.3 µg/mL, the “concentration above which the declines were identical” value [1] was > 3.5 x MIC and the “time to observable response after addition” value [1] was ≤ 5 min. For the same compound, the “Observed effect on p-t curves” value ([1]; 0.07 ug/ml added at 18 % of p-t curve) was “No effect on growth curve”, the “response of p-t curve” value ([1]; 0.033 x MIC (0.07 µg/ml)) was “no response to the antibiotic was observed” and the Comments ([1]; 0.35 -2 ug/ml added at 18 % of p-t curve) was “All curves return to baseline confirmed bacteriocidal action”. The “Observed effect on p-t curves” value ([1]; 0.35 -2 ug/ml added at 18 % of p-t curve, CV 2.5%) was “Linear log dose response 10 min after addition of antibiotic CV 2.5%”, the “time to sharp decline in heat output after addition” value ([1]; 0.5 x MIC) was ≤ 10 min and the mode of action ([1]; at MIC values) was “bactericidal”. The “Observed effect on p-t curves” value (Micrococcus flavus [2]) was “Slightly delayed peak”, the MIC (Micrococcus flavus [3]) was 2 µg/mL and the MBC ([4]; as printed in table head) was “Ug/ml MIC & MBC 2 ug/ml”. The MIC ([4]; as printed in table heads) was “Ug/ml MIC & MBC 2 ug/ml”, the MIC ([4]; listed as POL) was 2 µg/mL and the MBC ([4]; text) was 2 µg/mL. The MIC ([4]; text) was 2 µg/mL.
